PMC3396293 (Bioorganic & medicinal chemistry, 2011)
Counter-ions that a name gives are not always drawn.

What was measured:
Type in all cases: biochemical
steroid sulfatase (STS) = biological target: T1, steroid sulfatase (STS) (Homo sapiens, UniProt P08842); assay: 3H-DHEA scintillation counting; details: labelled compound; 5 µM DHEAS, pH 7.4, 37 °C
T1 sequence (P08842 22-583): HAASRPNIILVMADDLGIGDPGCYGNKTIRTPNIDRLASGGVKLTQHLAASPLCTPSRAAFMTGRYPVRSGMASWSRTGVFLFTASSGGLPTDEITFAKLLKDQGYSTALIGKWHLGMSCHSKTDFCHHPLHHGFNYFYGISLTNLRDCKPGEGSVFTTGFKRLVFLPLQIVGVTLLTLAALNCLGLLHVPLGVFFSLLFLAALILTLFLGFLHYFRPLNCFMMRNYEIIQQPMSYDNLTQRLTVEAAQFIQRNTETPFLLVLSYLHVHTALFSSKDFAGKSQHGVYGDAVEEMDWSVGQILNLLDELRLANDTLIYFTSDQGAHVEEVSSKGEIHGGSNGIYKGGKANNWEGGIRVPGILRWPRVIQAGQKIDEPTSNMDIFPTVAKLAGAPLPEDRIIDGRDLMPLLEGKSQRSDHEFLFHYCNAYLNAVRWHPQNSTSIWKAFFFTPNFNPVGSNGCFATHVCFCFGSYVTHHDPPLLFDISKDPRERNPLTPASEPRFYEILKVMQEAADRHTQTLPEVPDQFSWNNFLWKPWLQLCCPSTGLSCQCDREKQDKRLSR

PARS = PARS (Pseudomonas aeruginosa, UniProt P51691); assay: colorimetric assay, […] nm; details: 8 mM pNCS, pH 8.5, room temperature
Chain of PARS (P51691 2-536): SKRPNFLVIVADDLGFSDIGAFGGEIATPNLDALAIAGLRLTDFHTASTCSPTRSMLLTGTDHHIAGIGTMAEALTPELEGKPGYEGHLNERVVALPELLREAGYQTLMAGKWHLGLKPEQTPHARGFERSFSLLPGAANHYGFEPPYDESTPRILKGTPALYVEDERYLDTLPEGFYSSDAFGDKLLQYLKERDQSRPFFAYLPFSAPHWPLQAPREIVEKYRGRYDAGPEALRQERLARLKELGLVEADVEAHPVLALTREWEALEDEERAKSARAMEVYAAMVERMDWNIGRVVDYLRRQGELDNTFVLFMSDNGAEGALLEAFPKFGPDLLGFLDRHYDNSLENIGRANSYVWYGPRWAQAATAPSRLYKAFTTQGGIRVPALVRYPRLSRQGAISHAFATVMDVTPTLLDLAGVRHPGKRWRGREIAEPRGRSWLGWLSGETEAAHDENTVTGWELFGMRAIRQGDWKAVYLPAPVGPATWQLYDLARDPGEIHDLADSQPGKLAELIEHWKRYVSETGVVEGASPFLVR

aryl sulfatase G (ARSG) = biological target: T2, aryl sulfatase G (ARSG) (Homo sapiens, UniProt Q96EG1); assay: colorimetric assay, […] nm; details: 8 mM pNCS, 0.5 M NaOAc, pH 5.6, 37 °C
T2 sequence (Q96EG1 17-525): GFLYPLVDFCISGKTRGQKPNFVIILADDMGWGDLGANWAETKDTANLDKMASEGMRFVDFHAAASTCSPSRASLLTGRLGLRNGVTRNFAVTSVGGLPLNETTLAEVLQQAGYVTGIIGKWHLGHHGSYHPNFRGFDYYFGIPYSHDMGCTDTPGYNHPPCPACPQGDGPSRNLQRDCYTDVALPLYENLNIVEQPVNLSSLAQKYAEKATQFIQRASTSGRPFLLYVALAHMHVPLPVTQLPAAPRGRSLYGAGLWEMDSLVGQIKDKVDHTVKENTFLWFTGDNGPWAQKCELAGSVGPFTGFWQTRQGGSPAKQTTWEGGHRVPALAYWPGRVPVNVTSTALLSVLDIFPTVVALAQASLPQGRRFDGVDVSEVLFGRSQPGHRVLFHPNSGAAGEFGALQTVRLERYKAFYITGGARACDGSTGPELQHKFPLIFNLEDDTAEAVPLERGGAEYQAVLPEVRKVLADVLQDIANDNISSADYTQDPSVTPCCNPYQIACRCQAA

KARS = biological target: T3, KARS (Klebsiella pneumoniae, UniProt Q9X759); assay: colorimetric assay, […] nm; details: 8 mM pNCS, pH 7.5, room temperature
T3 sequence (Q9X759 21-577): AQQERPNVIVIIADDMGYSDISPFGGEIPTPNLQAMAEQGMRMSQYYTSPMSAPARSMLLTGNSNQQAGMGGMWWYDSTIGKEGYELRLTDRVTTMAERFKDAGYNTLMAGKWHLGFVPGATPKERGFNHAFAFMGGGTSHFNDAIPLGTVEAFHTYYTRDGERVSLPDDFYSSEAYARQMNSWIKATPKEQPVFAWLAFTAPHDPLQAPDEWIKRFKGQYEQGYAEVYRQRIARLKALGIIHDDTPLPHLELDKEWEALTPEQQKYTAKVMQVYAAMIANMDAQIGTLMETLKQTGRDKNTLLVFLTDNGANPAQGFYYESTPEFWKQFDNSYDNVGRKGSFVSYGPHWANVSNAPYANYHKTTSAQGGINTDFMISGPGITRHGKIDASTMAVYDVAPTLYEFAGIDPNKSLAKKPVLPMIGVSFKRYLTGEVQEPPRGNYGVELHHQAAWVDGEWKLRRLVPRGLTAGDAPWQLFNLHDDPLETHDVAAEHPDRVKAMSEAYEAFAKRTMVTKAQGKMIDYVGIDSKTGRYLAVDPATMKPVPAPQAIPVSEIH

Structure (SMILES) | 3H-DHEA scintillation counting (steroid sulfatase (STS)) | colorimetric assay, 515 nm (PARS) | colorimetric assay, 515 nm (aryl sulfatase G (ARSG)) | colorimetric assay, 515 nm (KARS)
C[C@]12CC[C@H](OS(=O)(=O)O)CC1=CC[C@@H]1[C@@H]2CC[C@]2(C)C(=O)CC[C@@H]12 [dehydroepiandrosterone-3-sulfate] | STS activity was determined using a radioactive dehydroepiandrosterone-3-sulfate (^3DHEAS) assay |  |  | 
O=[N+]([O-])c1ccc(O)c(OS(=O)(=O)O)c1 [para-nitrocatechol sulfate] |  | KARS, PARS and ARSG activities were monitored using a para-nitrocatechol sulfate (pNCS) colorimetric assay | KARS, PARS and ARSG activities were monitored using a para-nitrocatechol sulfate (pNCS) colorimetric assay | KARS, PARS and ARSG activities were monitored using a para-nitrocatechol sulfate (pNCS) colorimetric assay
